{"source": "patent US10328093B2", "about": "“Anthracycline formulations” (CYTRX CORPORATION, priority 2012, dated 2019)", "key": {"[1]": {"assay": "IV Admixture stability in LR at approximately 2.4 mg/mL after reconstitution", "assay_type": "physicochemical", "settings": "for pH drop: from zero to two hours", "procedure": "To analyze DOXO-EMCH's behavior in solution, a reversed-phase (RP) HPLC method for quantitation of DOXO-EMCH and various impurities and degradation products was utilized. Samples (1.0 μL injection volume) were assayed on an HPLC system fitted with a Phenomenex Gemini C18 column 100×2.0 mm, 3 μm at a flow rate of 0.3 mL/min. The mobile phase used was an acetate/acetonitrile gradient. The degradation product EMCH could not be detected using the above HPLC method, and was therefore determined using a liquid chromatography-mass spectrometry (LC-MS) method.\nIV Admixture stability studies were designed to use the reconstitution diluent found suitable in part 1 following the procedure outlined below. Briefly, to prepare an IV Admixture solution containing approximately 2.4 mg/mL DOXO-EMCH, the required volume for reconstitution was withdrawn from the IV infusion solution bag intended for final administration. The required volume for reconstitution of the respective diluent was measured and transferred into a vial of lyophilized DOXO-EMCH. The vial of DOXO-EMCH and diluent was gently swirled to dissolve the vial contents and obtain a homogeneous mixture. The reconstituted solution of drug product was inspected to ensure that the drug was completely dissolved and that no foreign matter was present. This procedure was repeated for the total number of vials required to prepare the calculated dose of DOXO-EMCH in IV infusion solution. The required volume of reconstituted DOXO-EMCH solution was then withdrawn from the drug product vials using a suitably sized syringe, and injected into the IV infution solution bag. The contents of the IV infusion solution bag were thoroughly mixed to obtain a homogeneous mixture. The IV infusion bag was then stored at room temperature and protected from light.\nThe IV Admixture study was performed by first removing 3 vials of 200 mg lyophilized DOXO-EMCH drug product from storage at −20° C. and allowing the vials to come to room temperature. […] Each of the vials was reconstituted as described above. The required volume of the reconstitution diluent (20 mL) was drawn into an appropriate plastic syringe using a needle and injected through the stopper of each vial. The reconstituted vial was then swirled and visually inspected for complete reconstitution to form a clear, homogeneous solution. The time required to form a clear, homogeneous solution was recorded. The required volume (20.0 mL of a 10 mg/mL constituted solution) was transferred from each reconstituted vial into the 250 mL IV Admixture solution as described above. Briefly, the required volume (20.0 mL of a 10 mg/mL constituted solution) was withdrawn using an appropriate plastic syringe and needle, the required volume of constituted drug product was transferred from each of three vials into the 250 mL IV Admixture using an appropriate plastic syringe and needle, and the contents of the IV Admixture were completely mixed to obtain a homogeneous mixture at a target concentration of approximately 2.4 mg/mL. The IV bag was weighed prior to injection of constituted drug product. […] solution, diluting with chilled HPLC method diluent to achieve a target concentration of 0.24 mg/mL, and injecting into the HPLC. Duplicate injections were made for each time point. The pH of the IV Admixture and sample prepared for HPLC analysis were also measured at each time point. The empty IV bag was weighed at study completion to calculate the actual IV Admixture solution volume in each bag.\nThe reconstituted solution was evaluated for color, clarity, and absence of insoluble material in the vial after every 30 seconds of mixing. Following addition of the reconstituted drug product solution to the IV bag, the resulting IV Admixture was evaluated for color, clarity, and absence of any insoluble material immediately after mixing and at each analytical time point. The amount (area %) of the degradation product doxorubicin was determined at each time point. […]"}, "[2]": {"system": "rats", "settings": "acute and repeat-dose; cited from earlier work"}, "[3]": {"settings": "reconstituted in 50:50 ethanol:water, diluted in LR, two hour time point, average of two studies"}, "[4]": {"settings": "reconstituted in LR, diluted in LR to ~2.4 mg/mL, Study #1, ambient temperature, 0 min"}, "[5]": {"settings": "reconstituted in LR, diluted in LR to ~2.4 mg/mL, Study #1, ambient temperature, 30 min"}, "[6]": {"settings": "reconstituted in LR, diluted in LR to ~2.4 mg/mL, Study #1, ambient temperature, 60 min"}, "[7]": {"settings": "reconstituted in LR, diluted in LR to ~2.4 mg/mL, Study #1, ambient temperature, 120 min"}, "[8]": {"settings": "reconstituted in LR, diluted in LR to ~2.4 mg/mL, Study #1, ambient temperature, 150 min"}, "[9]": {"settings": "reconstituted in LR, diluted in LR to ~2.4 mg/mL, Study #1, ambient temperature, 240 min"}, "[10]": {"settings": "reconstituted in LR, diluted in LR to ~2.4 mg/mL, Study #2, ambient temperature, 0 min"}, "[11]": {"settings": "reconstituted in LR, diluted in LR to ~2.4 mg/mL, Study #2, ambient temperature, 30 min"}, "[12]": {"settings": "reconstituted in LR, diluted in LR to ~2.4 mg/mL, Study #2, ambient temperature, 60 min"}, "[13]": {"settings": "reconstituted in LR, diluted in LR to ~2.4 mg/mL, Study #2, ambient temperature, 90 min"}, "[14]": {"settings": "reconstituted in LR, diluted in LR to ~2.4 mg/mL, Study #2, ambient temperature, 120 min"}, "[15]": {"settings": "reconstituted in LR, diluted in LR to ~2.4 mg/mL, Study #2, ambient temperature, 150 min"}, "[16]": {"settings": "reconstituted in SWFI (~10 mg/mL), diluted in LR IV bag to ~2.4 mg/mL, ambient temperature, 30 min"}, "[17]": {"settings": "reconstituted in SWFI (~10 mg/mL), diluted in LR IV bag to ~2.4 mg/mL, ambient temperature, 60 min"}, "[18]": {"settings": "reconstituted in SWFI (~10 mg/mL), diluted in LR IV bag to ~2.4 mg/mL, ambient temperature, 150 min"}, "[19]": {"settings": "reconstituted in SWFI (~10 mg/mL), diluted in LR IV bag to ~2.4 mg/mL, ambient temperature, 240 min"}, "[20]": {"settings": "reconstituted in ethanol:water, diluted in LR to ~2.4 mg/mL, Study #1, ambient temperature, 0 min"}, "[21]": {"settings": "reconstituted in ethanol:water, diluted in LR to ~2.4 mg/mL, Study #1, ambient temperature, 30 min"}, "[22]": {"settings": "reconstituted in ethanol:water, diluted in LR to ~2.4 mg/mL, Study #1, ambient temperature, 60 min"}, "[23]": {"settings": "reconstituted in ethanol:water, diluted in LR to ~2.4 mg/mL, Study #1, ambient temperature, 90 min"}, "[24]": {"settings": "reconstituted in ethanol:water, diluted in LR to ~2.4 mg/mL, Study #1, ambient temperature, 120 min"}, "[25]": {"settings": "reconstituted in ethanol:water, diluted in LR to ~2.4 mg/mL, Study #1, ambient temperature, 150 min"}, "[26]": {"settings": "reconstituted in ethanol:water, diluted in LR to ~2.4 mg/mL, Study #2, ambient temperature, 0 min"}, "[27]": {"settings": "reconstituted in ethanol:water, diluted in LR to ~2.4 mg/mL, Study #2, ambient temperature, 30 min"}, "[28]": {"settings": "reconstituted in ethanol:water, diluted in LR to ~2.4 mg/mL, Study #2, ambient temperature, 60 min"}, "[29]": {"settings": "reconstituted in ethanol:water, diluted in LR to ~2.4 mg/mL, Study #2, ambient temperature, 120 min"}, "[30]": {"settings": "reconstituted in ethanol:water, diluted in LR to ~2.4 mg/mL, Study #2, ambient temperature, 150 min"}, "[31]": {"settings": "reconstituted in ethanol:water, diluted in LR to ~2.4 mg/mL, Study #2, ambient temperature, 240 min"}}, "data": [{"molecule": "COc1cccc2c1C(=O)c1c(O)c3c(c(O)c1C2=O)C[C@@](O)(/C(CO)=N/NC(=O)CCCCCN1C(=O)C=CC1=O)C[C@@H]3O[C@H]1C[C@H](N)[C@H](O)[C@H](C)O1.Cl", "note": "[DOXO-EMCH]", "values": [{"measurement": "stability of IV solutions in LR", "setting": "[1]; drug product reconstituted in any of SWFI, LR, 50:50 ethanol/water, based on accumulation of doxorubicin", "value": "relatively stable for two hours or more"}, {"measurement": "pH drop", "setting": "[1]; reconstituted in 50:50 ethanol:water, diluted in LR, two studies", "value": "0.3-0.4 units"}, {"measurement": "average doxorubicin content", "setting": "[1]; [3]", "value": 2.0, "unit": "%"}, {"measurement": "average pH", "setting": "[1]; [3]", "value": 5.9}, {"measurement": "Doxorubicin", "setting": "[1]; [4]", "value": 1.10, "unit": "Area %"}, {"measurement": "pH", "setting": "[1]; [4]", "value": 5.99}, {"measurement": "Doxorubicin", "setting": "[1]; [5]", "value": 1.28, "unit": "Area %"}, {"measurement": "pH", "setting": "[1]; [5]", "value": 5.87}, {"measurement": "Doxorubicin", "setting": "[1]; [6]", "value": 1.74, "unit": "Area %"}, {"measurement": "pH", "setting": "[1]; [6]", "value": 5.85}, {"measurement": "Doxorubicin", "setting": "[1]; [7]", "value": 2.24, "unit": "Area %"}, {"measurement": "pH", "setting": "[1]; [7]", "value": 5.76}, {"measurement": "Doxorubicin", "setting": "[1]; [8]", "value": 2.93, "unit": "Area %"}, {"measurement": "pH", "setting": "[1]; [8]", "value": 5.75}, {"measurement": "Doxorubicin", "setting": "[1]; [9]", "value": 3.80, "unit": "Area %"}, {"measurement": "pH", "setting": "[1]; [9]", "value": 5.67}, {"measurement": "Doxorubicin", "setting": "[1]; [10]", "value": 1.03, "unit": "Area %"}, {"measurement": "pH", "setting": "[1]; [10]", "value": 6.10}, {"measurement": "Doxorubicin", "setting": "[1]; [11]", "value": 1.04, "unit": "Area %"}, {"measurement": "pH", "setting": "[1]; [11]", "value": 5.98}, {"measurement": "Doxorubicin", "setting": "[1]; [12]", "value": 1.68, "unit": "Area %"}, {"measurement": "pH", "setting": "[1]; [12]", "value": 5.94}, {"measurement": "Doxorubicin", "setting": "[1]; [13]", "value": 1.67, "unit": "Area %"}, {"measurement": "pH", "setting": "[1]; [13]", "value": 5.89}, {"measurement": "Doxorubicin", "setting": "[1]; [14]", "value": 2.53, "unit": "Area %"}, {"measurement": "pH", "setting": "[1]; [14]", "value": 5.79}, {"measurement": "Doxorubicin", "setting": "[1]; [15]", "value": 2.50, "unit": "Area %"}, {"measurement": "pH", "setting": "[1]; [15]", "value": 5.77}, {"measurement": "pH drop", "setting": "[1]; reconstituted in LR, diluted in LR, two studies", "value": "0.2-0.3 units"}, {"measurement": "average pH", "setting": "[1]; reconstituted in LR, diluted in LR, two hour time point, average of two studies", "value": 5.8}, {"measurement": "Doxorubicin", "setting": "[1]; reconstituted in SWFI (~10 mg/mL), diluted in LR IV bag to ~2.4 mg/mL, ambient temperature, 0 min", "value": 1.23, "unit": "Area %"}, {"measurement": "Doxorubicin", "setting": "[1]; [16]", "value": 1.40, "unit": "Area %"}, {"measurement": "pH", "setting": "[1]; [16]", "value": 5.98}, {"measurement": "Doxorubicin", "setting": "[1]; [17]", "value": 1.88, "unit": "Area %"}, {"measurement": "pH", "setting": "[1]; [17]", "value": 5.84}, {"measurement": "Doxorubicin", "setting": "[1]; [18]", "value": 3.23, "unit": "Area %"}, {"measurement": "pH", "setting": "[1]; [18]", "value": 5.73}, {"measurement": "Doxorubicin", "setting": "[1]; [19]", "value": 4.23, "unit": "Area %"}, {"measurement": "pH", "setting": "[1]; [19]", "value": 5.62}, {"measurement": "pH drop", "setting": "[1]; reconstituted in SWFI, diluted in LR", "value": "about 0.4 units"}, {"measurement": "Doxorubicin", "setting": "[1]; [20]", "value": 1.0, "unit": "Area %"}, {"measurement": "pH", "setting": "[1]; [20]", "value": 6.22}, {"measurement": "Doxorubicin", "setting": "[1]; [21]", "value": 1.1, "unit": "Area %"}, {"measurement": "pH", "setting": "[1]; [21]", "value": 6.04}, {"measurement": "Doxorubicin", "setting": "[1]; [22]", "value": 1.3, "unit": "Area %"}, {"measurement": "pH", "setting": "[1]; [22]", "value": 5.95}, {"measurement": "Doxorubicin", "setting": "[1]; [23]", "value": 1.7, "unit": "Area %"}, {"measurement": "pH", "setting": "[1]; [23]", "value": 5.89}, {"measurement": "Doxorubicin", "setting": "[1]; [24]", "value": 1.9, "unit": "Area %"}, {"measurement": "pH", "setting": "[1]; [24]", "value": 5.83}, {"measurement": "Doxorubicin", "setting": "[1]; [25]", "value": 2.3, "unit": "Area %"}, {"measurement": "pH", "setting": "[1]; [25]", "value": 5.82}, {"measurement": "Doxorubicin", "setting": "[1]; [26]", "value": 1.1, "unit": "Area %"}, {"measurement": "pH", "setting": "[1]; [26]", "value": 6.19}, {"measurement": "Doxorubicin", "setting": "[1]; [27]", "value": 1.3, "unit": "Area %"}, {"measurement": "pH", "setting": "[1]; [27]", "value": 6.05}, {"measurement": "Doxorubicin", "setting": "[1]; [28]", "value": 1.5, "unit": "Area %"}, {"measurement": "pH", "setting": "[1]; [28]", "value": 5.99}, {"measurement": "Doxorubicin", "setting": "[1]; [29]", "value": 2.1, "unit": "Area %"}, {"measurement": "pH", "setting": "[1]; [29]", "value": 5.89}, {"measurement": "Doxorubicin", "setting": "[1]; [30]", "value": 2.3, "unit": "Area %"}, {"measurement": "pH", "setting": "[1]; [30]", "value": 5.87}, {"measurement": "Doxorubicin", "setting": "[1]; [31]", "value": 3.4, "unit": "Area %"}, {"measurement": "pH", "setting": "[1]; [31]", "value": 5.80}, {"measurement": "tolerance compared to doxorubicin", "setting": "[2]", "value": "significantly higher tolerance"}]}]}
